{"source": "patent US6204005A", "about": "“Immunoassay for toxic congeners of polychlorinated biphenyls” (priority 1995, dated 2001)", "key": {"[1]": {"tested_on": "anti-hapten antibody (sera of rabbits immunized with KLH-hapten I conjugate)", "assay": "Inhibition ELISA with BSA-Competitor 11 coating conjugate (Methods A,B)", "type": "binding, rabbit", "conditions": "for I10 (mdl): Table 3, selected analytes, NR/>100 ppm, NR--No Assay Response", "method": "A solution of the coating antigen, consisting of 100 ng of a BSA conjugate of Hapten I or Exemplified Competitor 11 above, in 50 μl of PBS (phosphate buffered saline, pH 7.4, 10 mM phosphate, 150 mM NaCl), was dispensed into each well of a 96-well microtiter plate (Dynatech Immulon-2 commercially available from Dynatech, Inc., Chantilly, Va.) and incubated at 28° C. (+/-0.5° C.) for 2 hours. The coating antigen solution was then removed from the wells and the plate was washed three times with PBS. All wash steps utilized a Cambridge Technology, Inc. Platewasher 260, commercially available from Cambridge Technology, Inc. Cambridge, Mass. The remaining active sites in the wells were blocked with a 150 μl solution of 1% BSA in PBS with 0.02% sodium azide for 2 hours at 28° C. After removal of the blocking solution the plate was washed three times with PBS. Serum stored at -20° C. was freshly thawed and diluted 100-250,000 fold with the 1% BSA in PBS/DT blocking buffer (PBS buffer containing 10% by volume dimethylformamide and 0.5% Triton X-100). This solution (50 μl/well) was then dispensed into replicate wells (3-6) on the plate, which was covered and incubated for 1 hour at room temperature (RT). After removal of the incubation solution the plate was washed three times with PBS. The labeled antibody, anti-rabbit IgG (whole molecule)--alkaline phosphatase conjugate, (Sigma No. A-8025 commercially available from Sigma Chemical Company, St. Louis, Mo.), diluted 1/500 with BSA/PBS, was added in a quantity of 50 μl/well and incubated for 1 hour at 28° C. After removal of the second antibody solution the plate was washed three times with PBS. The wells were then washed (one time) with 10 mM diethanolamine (pH 9.4) which contained 0.5 mM magnesium chloride. Substrate solution (50 μl; 10 mg p-nitrophenylphosphate in 10.0 ml of the diethanolamine/magnesium chloride) was added to each well and incubated for 30 minutes at 28° C. Sodium hydroxide (50 μl of a 0.05 N solution) was added to each of the wells to stop the reaction. The final Absorbance in each well was determined at 405 nm using a Cambridge Technologies, Inc. Model 750 Microplate Reader commercially available from Cambridge Technologies, Inc., Cambridge, Mass. The titer of the sera was determined by a Log Sera Dilution versus Absorbance plot and the EC50 value.\nInhibition ELISA followed the basic assay procedure described above with the following addition: The serum sample was diluted to its EC80 value (400-1000 fold) with the 1% BSA in PBS blocking buffer to which had been added 10% dimethylformamide, volume/volume (v/v), and 0.5% Triton® X-100 (PBS-DT). An aqueous analyte solution (e.g., Aroclor® 1248) was prepared by solution of the analyte in dimethylformamide followed by dilution to the required concentration in PBS-DT. The analyte solution was added to the antibody solution to achieve the desired concentration of analyte (typically 1 ppb-100 ppm) and the resulting solution was incubated overnight at room temperature. This solution (50 μl/well) was then dispensed into replicate wells (3-6) on the plate and the assay completed as above. The minimum detection limit (I10 ) and the I50 values were determined using a Log (Analyte Concentration in parts per billion--ppb) versus Absorbance or by converting absorbance to the B/Bo ratio where B=Sample Absorbance and Bo=Absorbance of the Blank Sample. […] This figure illustrates the significant improvement in PCB sensitivity as measured by both minimum detection limit (B/Bo=0.9) and assay range (B/Bo=0.5) on using a competitor versus a hapten as the competition reagent.\nThis assay format gave a minimum detection limit (I10) of approximately 0.2 ppm and an I50 of approximately 3 ppm."}, "[2]": {"tested_on": "Hapten VII sera (polyclonal antibodies)", "assay": "Sera direct EIA with Hapten VII sera and competitor enzyme conjugate", "type": "binding, mice", "method": "The competitors A-E and Hapten VII were conjugated to the enzyme, amino modified Horseradish Peroxidase (HRP) (horseradish peroxidase commercially available from Sigma Chemical Co. (No. P-6782), St. Louis, Mo.; amino modified per R. Hsiao and H. Royer, Archives Biochem. Biophys., 198, 379-385 (1979) to give 6-24 free amines), using the carbodiimide mediated carboxyl activation procedure described for Hapten VII in Example 24. Hapten and competitor load were determined by UV/Vis spectroscopy, also as described for Hapten VII.\n(§1) The direct EIA (immoblized antibody and competitor enzyme conjugate) was performed as follows. Serum or monoclonal antibody supernatant stored at -20° C. was diluted 1,000-40,000 fold with PBS which contained 0.1% Tween-20. This solution was dispensed (500 ul) into donkey anti-mouse second antibody coated tubes (DAM Tubes commercially available from Millipore Corp., Bedford, Mass.) and incubated at room temperature overnight. The antisera solution was decanted from the tubes and the tubes washed 3 times with distilled water. Non-specific sites in the tubes were blocked with 600 ul of BSA blocking buffer (EIA Blocking Buffer commercially available from Millipore Corp., Bedford, Mass.) and incubated for 2 hours at room temperature or overnight at 4° C. The blocking buffer was decanted and the tubes allowed to dry under ambient room conditions for at least 2 hours. The assay was performed by adding 500 ul of assay diluent (1% methanol (v/v) and 0.005% Tween-20 (w/v) in distilled water) to the required number of tubes followed by 10 ul of a methanol solution of the analyte (PCB congener). After a 5 minute incubation at room temperature, the solution was decanted and the tubes rinsed 3-4 times with tap water. The horseradish peroxidase competitor or Hapten VII conjugates were diluted 1,000-60,000 fold from 2-5 mg/ml stock solutions in PBS with conjugate diluent (Enzyme Conjugate Diluent commercially available from Millipore Corp., Bedford, Mass.). The enzyme conjugate (200 ul) was added to the tubes followed by a 5 minute incubation at room temperature. The conjugate solution was decanted and the tubes rinsed 3-4 times with tap water. Enzyme substrate solution (500 ul, KPL No. 50-76-04 commercially available from KPL Laboratories, Gaithersburg, Md.) was added and the tubes were incubated at room temperature for 5-15 minutes. The enzyme reaction was stopped with the addition of 500 ul of 1N HCl. The OD of the solution was determined at 450 nm. The data was plotted using Log (Congener Concentration) versus B/Bo (B=Sample Absorbance, Bo=Sample Blank Absorbance).\nThe direct EIA (Method 19) was used to evaluate sera samples taken on day 120."}, "[3]": {"conditions": "relative to 2,3,7,8-TCDD = 1.0; cited from earlier work"}, "[4]": {"molecular_target": "Hapten VII derived monoclonal antibody S2B1", "assay": "Monoclonal antibody direct EIA with Competitor D enzyme conjugate", "type": "binding", "conditions": "for estimated I50: FIG. 9, 4-parameter logistic fits; for I50: FIG. 9, monoclonal antibody S2B1, text value", "method": "as §1\nMonoclonal antibodies were derived essentially as described by Karu, et al. (A. E. Karu, et al., J. Agric. Food Chem., 42, 301-309 (1994)) using Hapten VII BSA conjugate and Competitor C BSA conjugate for the primary screen.\nFIG. 9 illustrates the specificity of a direct EIA based on the Hapten VII derived monoclonal antibody S2B1 and Competitor D enzyme conjugate. Both 3,3',4,4'-tetrachlorobiphenyl and 3,3',4,4',5-pentachlorobiphenyl give ca. 1 ppb I50 values. Cross-reactions of a number of congeners which are significant Aroclor(R) consitutents are <0.001%."}, "[5]": {"tested_on": "Hapten VII sera (polyclonal antibodies)", "assay": "Sera indirect EIA with Hapten VII sera and Competitor C", "type": "binding, mice", "conditions": "day 120 sera, Competitor C, FIG. 7", "method": "The indirect EIA (immobilized competitor BSA conjugate) was performed as described by Karu, et al. (A. E. Karu, et al., J. Agric. Food Chem., 42, 301-309 (1994)).\nThe indirect EIA (Method 18) was used to evaluate sera samples taken on day 120."}, "[6]": {"conditions": "BSA-Competitor 11 coating conjugate, FIG. 1 Plot 3 (analyte Aroclor 1248)"}, "[7]": {"conditions": "Table 7, Hapten VII sera and Competitor D direct EIA"}, "[8]": {"conditions": "direct EIA, day 120 sera, Competitor C, FIG. 8"}}, "data": [{"smiles": "Clc1ccccc1Cl", "note": "[1,2-dichlorobenzene]", "values": [{"measurement": "I10 (mdl)", "setting": "[1]", "value": "> 100", "unit": "ppm"}]}, {"smiles": "Clc1ccc(Cl)cc1", "note": "[1,4-dichlorobenzene]", "values": [{"measurement": "I10 (mdl)", "setting": "[1]", "value": "> 100", "unit": "ppm"}]}, {"smiles": "O=C(O)CCCCc1cc(Cl)ccc1Cl", "note": "[Competitor 11, 5-(2,5-Dichlorophenyl)pentanoic acid]", "values": [{"measurement": "I50", "setting": "[2]; Table 6, I50 of analyte 3,3',4,4'-tetrachlorobiphenyl with the listed competitor, Hapten VII sera", "value": "6-8 ppb"}, {"measurement": "Assay sensitivity versus Hapten VII enzyme conjugate based assay", "setting": "[2]; in words, Table 6", "value": "significantly more sensitive"}, {"measurement": "I50", "setting": "[1]; [6]", "value": "approximately 3 ppm"}, {"measurement": "minimum detection limit (I10)", "setting": "[1]; [6]", "value": "approximately 0.2 ppm"}]}, {"smiles": "Clc1ccc(-c2cc(Cl)c(Cl)c(Cl)c2)cc1Cl", "note": "[BZ No. 126, 3,3',4,4',5-pentachlorobiphenyl]", "values": [{"measurement": "TEF", "setting": "[3]", "value": 0.1}, {"measurement": "estimated I50", "setting": "[4]", "value": 1.2, "unit": "ppb"}, {"measurement": "I50", "setting": "[4]", "value": "ca. 1 ppb"}]}, {"smiles": "Clc1ccc(-c2ccc(Cl)c(Cl)c2)cc1Cl", "note": "[BZ No. 77, 3,3',4,4'-tetrachlorobiphenyl]", "values": [{"measurement": "I50", "setting": "[5]", "value": "< 10", "unit": "ppb"}, {"measurement": "TEF", "setting": "[3]", "value": 0.01}, {"measurement": "I50", "setting": "[2]; [7]", "value": 3, "unit": "ppb"}, {"measurement": "I50", "setting": "[2]; [8]", "value": 1.4, "unit": "ppb"}, {"measurement": "estimated I50", "setting": "[4]", "value": 0.9, "unit": "ppb"}, {"measurement": "I50", "setting": "[4]", "value": "ca. 1 ppb"}]}, {"smiles": "Oc1cc(Cl)ccc1Cl", "note": "[2,5-dichlorophenol]", "values": [{"measurement": "I10 (mdl)", "setting": "[1]", "value": "> 100", "unit": "ppm"}]}, {"smiles": "O=C(O)COc1ccc(Cl)cc1Cl", "note": "[2,4-dichlorophenoxyacetic acid]", "values": [{"measurement": "I10 (mdl)", "setting": "[1]", "value": "> 100", "unit": "ppm"}]}, {"smiles": "Clc1ccc(Cl)c(Cl)c1", "note": "[1,2,4-trichlorobenzene]", "values": [{"measurement": "I10 (mdl)", "setting": "[1]", "value": "> 100", "unit": "ppm"}]}, {"smiles": "Clc1cc(Cl)c(-c2cc(Cl)c(Cl)cc2Cl)cc1Cl", "note": "[2,2',4,4',5,5'-hexachlorobiphenyl]", "values": [{"measurement": "cross-reaction relative to 3,3',4,4'-tetrachlorobiphenyl", "setting": "[5]", "value": "< 0.0", "unit": "%"}, {"measurement": "TEF", "setting": "[3]", "value": "less than 0.00001"}, {"measurement": "I50", "setting": "[2]; [7]", "value": "> 20,000 ppb"}, {"measurement": "cross reaction relative to 3,3',4,4'-tetrachlorobiphenyl", "setting": "[2]; [8]", "value": "< 0.05", "unit": "%"}]}, {"smiles": "COc1cccc(Cl)c1", "note": "[3-chloroanisole]", "values": [{"measurement": "I10 (mdl)", "setting": "[1]", "value": "> 100", "unit": "ppm"}]}, {"smiles": "Oc1cccc(Cl)c1", "note": "[3-chlorophenol]", "values": [{"measurement": "I10 (mdl)", "setting": "[1]", "value": "> 100", "unit": "ppm"}]}, {"smiles": "Clc1cccc(Cl)c1", "note": "[1,3-dichlorobenzene]", "values": [{"measurement": "I10 (mdl)", "setting": "[1]", "value": "> 100", "unit": "ppm"}]}]}
